Where a name gives a salt, the structure may show the parent alone.
Legend:
[1] = system: cholesterol levels in the serum; test: Effect on cholesterol levels in the serum (normal rats); type: in vivo; settings: oral
[2] = system: cholesterol levels in the serum; test: Effect on cholesterol levels in the serum (hypercholesterolemia rats); type: in vivo, Male Sprague-Dawley rats; settings: for HDL chol. / HDL chol. / LDL + VLDL chol. / LDL + VLDL chol. / T. chol. (total cholesterol): oral; for effect on HDL cholesterol (words) / effect on total cholesterol in the serum (words): rat, in vivo
Method: Male Sprague-Dawley rats (JCL®, Nippon Clea Co. Ltd., Tokyo, Japan) weighing 90-100 g were fed semipurified diet containing 10% coconut oil, 1.5% cholesterol and 0.5% cholic acid. Three days after the start of feeding, the rats are allocated at random by the body weight to multiple groups each consisting 6-8 rats. On day 4 through 7, the drug suspension in 0.5% methylcellulose was orally given daily. […] Following the final dose, the rats were fasted overnight (approximately 16 hours). […] Serum was obtained by centrifugation at 1,600 xg for 15 min and stored at 4° C. in plastic tubes. The amount of total cholesterol and HDL cholesterol in the serum were determined. The determination of the total cholesterol was practiced by the method described in Schettler, G & Nussel; "Arbeitsmed. Sozialmed. Praventivmed." 10, 25 (1975) and the determination of HDL cholesterol was practiced by the method described in T. T. Ishikawa et al; "Lipids", 11, 628 (1976).

[3] = system: aortic smooth muscle cell; test: 12-HETE-associated aortic smooth muscle cell migration, filter membrane technique in modified Boyden chambers; type: cell-based; settings: 6×10^-15 g/ml 12-HETE, 37° C.
Source text: The effect of nicardipine on 12-HETE-associated aortic smooth muscle cell migration can be examined by measuring the migration of aortic smooth muscle cell by filter membrane technique in modified Boyden chambers as follows:
5×10^5 of the smooth muscle cells were suspended in Ca^2+ -containing culture medium supplemented with 5% calf serum containing various concentration of nicardipine. Control cultures contained the same volume, a final concentration of 1% (v/v), of […]. The suspensions of the smooth muscle cells were placed in the upper compartment of the chamber. The lower compartment of the chamber contained the same culture medium supplemented with 6×10^-15 g/ml of 12-HETE and 5% calf serum containing no nicardipine. The cells was incubated at 37° C. As control, medium with the same concentration of solvent (1% ethanol) containing no 12-HETE was used. Smooth muscle cell migration was quantitated microscopically by counting the number of cells that migrated into the filter. In each experiment, 10 high-power fields in 5 replicate cultures were examined to determine the number of cells that had migrated into the filers. Cell migration was expressed as cells/10 HPF (high-power fields) in FIG. 1.

mice, rats, dog = test: acute toxicity examination (overall statement); settings: in vivo
Source text: (§1) Nicardipine hydrochloride is a low toxicity compound, and this fact is confirmed by acute toxicity examination experiment.

[4] = acute toxicity, rats (S.D.); settings: rat, in vivo
Source text: as §1

[5] = acute toxicity, rats (Wister); settings: rat, in vivo
Source text: as §1

[6] = acute toxicity, mice (ICR); settings: mouse, in vivo
Source text: as §1

[7] = acute toxicity, dog (mongrel); type: in vivo; settings: in vivo, iv, only a range in parentheses printed
Source text: as §1

dog (mongrel) = test: acute toxicity, dog (mongrel); type: in vivo; settings: p.o.
Source text: as §1

[8] = hypercholesterolemia rats, 50 mg/kg
[9] = hypercholesterolemia rats, 100 mg/kg
[10] = hypercholesterolemia rats, 200 mg/kg
[11] = hypercholesterolemia rats, 10 mg/kg
[12] = hypercholesterolemia rats, 30 mg/kg
[13] = listed as nicardipine hydrochloride

CCOC(=O)C(C)(C)Oc1ccc(Cl)cc1 [clofibrate]
HDL chol. ([1]; 50 mg/kg): 26.5 ± 2.5 mg/dL | HDL chol. / LDL + VLDL chol. ([1]; 50 mg/kg): 1.828 | LDL + VLDL chol. ([1]; 50 mg/kg): 14.5 ± 1.0 mg/dL | T. chol. (total cholesterol) ([1]; 50 mg/kg): 42.7 ± 2.3 mg/dL | HDL chol. ([1]; 100 mg/kg): 30.3 ± 3.1 mg/dL | HDL chol. / LDL + VLDL chol. ([1]; 100 mg/kg): 3.258 | LDL + VLDL chol. ([1]; 100 mg/kg): 9.3 ± 1.5 mg/dL | T. chol. (total cholesterol) ([1]; 100 mg/kg): 39.7 ± 2.7 mg/dL | HDL chol. ([1]; 200 mg/kg): 22.8 ± 2.7 mg/dL | HDL chol. / LDL + VLDL chol. ([1]; 200 mg/kg): 1.664 | LDL + VLDL chol. ([1]; 200 mg/kg): 13.7 ± 2.1 mg/dL | T. chol. (total cholesterol) ([1]; 200 mg/kg): 36.5 ± 4.4 mg/dL | HDL chol. [2, 8]: 13.8 ± 1.0 mg/dL | HDL chol. / LDL + VLDL chol. [2, 8]: 0.036 | LDL + VLDL chol. [2, 8]: 379.6 ± 92.6 mg/dL | T. chol. (total cholesterol) [2, 8]: 412.0 ± 77.8 mg/dL | HDL chol. [2, 9]: 21.0 ± 2.5 mg/dL | HDL chol. / LDL + VLDL chol. [2, 9]: 0.100 | LDL + VLDL chol. [2, 9]: 210.4 ± 55.8 mg/dL | T. chol. (total cholesterol) [2, 9]: 231.0 ± 54.2 mg/dL | HDL chol. [2, 10]: 19.3 ± 2.8 mg/dL | HDL chol. / LDL + VLDL chol. [2, 10]: 0.065 | LDL + VLDL chol. [2, 10]: 298.0 ± 66.2 mg/dL | T. chol. (total cholesterol) [2, 10]: 317.4 ± 64.4 mg/dL

COC(=O)C1=C(C)NC(C)=C(C(=O)OCCN(C)Cc2ccccc2)C1c1cccc([N+](=O)[O-])c1 (centres unmarked) [nicardipine]
inhibition of 12-HETE-associated aortic smooth muscle cell migration [3]: inhibits 12-HETE-associated aortic smooth muscle cell migration (aortic smooth muscle cell migration induced by 12-L-hydroxy-5,8,10,14-eicosotetraenoic acid) significantly | effect on HDL cholesterol (words) [2]: elevating high density lipoprotein (HDL) selectivity | effect on total cholesterol in the serum (words) [2]: reducing cholesterol level increased in the serum

COC(=O)C1=C(C)NC(C)=C(C(=O)OCCN(C)Cc2ccccc2)C1c1cccc([N+](=O)[O-])c1 (centres unmarked) [Nicardipine hydrochloride]
acute toxicity (mice, rats, dog): low toxicity | LD50 ([4]; iv, rats (S.D.) female): 25 mg/kg | LD50 ([4]; iv, rats (S.D.) male): 18.1 mg/kg | LD50 ([4]; po, rats (S.D.) female): 557 mg/kg | LD50 ([4]; po, rats (S.D.) male): 643 mg/kg | HDL chol. ([1]; 10 mg/kg): 29.6 ± 1.4 mg/dL | HDL chol. / LDL + VLDL chol. ([1]; 10 mg/kg): 3.020 | LDL + VLDL chol. ([1]; 10 mg/kg): 9.8 ± 1.9 mg/dL | T. chol. (total cholesterol) ([1]; 10 mg/kg): 39.4 ± 2.0 mg/dL | HDL chol. ([1]; 30 mg/kg): 37.2 ± 2.7 mg/dL | HDL chol. / LDL + VLDL chol. ([1]; 30 mg/kg): 10.941 | LDL + VLDL chol. ([1]; 30 mg/kg): 3.4 ± 1.6 mg/dL | T. chol. (total cholesterol) ([1]; 30 mg/kg): 41.3 ± 4.7 mg/dL | HDL chol. ([1]; 100 mg/kg): 39.8 ± 4.3 mg/dL | HDL chol. / LDL + VLDL chol. ([1]; 100 mg/kg): 14.214 | LDL + VLDL chol. ([1]; 100 mg/kg): 2.8 ± 1.2 mg/dL | T. chol. (total cholesterol) ([1]; 100 mg/kg): 40.8 ± 5.9 mg/dL | effect on LDL chol ([2]; hypercholesterolemia rats): reduces remarkably LDL chol | HDL chol. [2, 11]: 27.0 ± 1.8 mg/dL | HDL chol. / LDL + VLDL chol. [2, 11]: 0.090 | LDL + VLDL chol. [2, 11]: 299.4 ± 52.8 mg/dL | T. chol. (total cholesterol) [2, 11]: 326.4 ± 52.0 mg/dL | HDL chol. [2, 12]: 28.0 ± 0.5 mg/dL | HDL chol. / LDL + VLDL chol. [2, 12]: 0.067 | LDL + VLDL chol. [2, 12]: 420.6 ± 53.2 mg/dL | T. chol. (total cholesterol) [2, 12]: 448.6 ± 52.8 mg/dL | HDL chol. [2, 9]: 47.0 ± 1.8 mg/dL | HDL chol. / LDL + VLDL chol. [2, 9]: 0.250 | LDL + VLDL chol. [2, 9]: 188.0 ± 26.4 mg/dL | T. chol. (total cholesterol) [2, 9]: 246.0 ± 24.6 mg/dL | effect on HDL cholesterol (words) [2, 13]: increases selectively HDL chol | effect on total cholesterol in the serum (words) [2, 13]: reduce the amount of total cholesterol in the serum | LD50 ([5]; iv, rats (Wister) female): 17.2 mg/kg | LD50 ([5]; iv, rats (Wister) male): 15.5 mg/kg | LD50 ([5]; po, rats (Wister) female): 184 mg/kg | LD50 ([5]; po, rats (Wister) male): 187 mg/kg | LD50 ([5]; sc, rats (Wister) female): 606 mg/kg | LD50 ([5]; sc, rats (Wister) male): 677 mg/kg | LD50 ([6]; iv, mice (ICR) female): 19.9 mg/kg | LD50 ([6]; po, mice (ICR) female): 650 mg/kg | LD50 ([6]; po, mice (ICR) male): 634 mg/kg | LD50 ([6]; sc, mice (ICR) female): 710 mg/kg | LD50 ([6]; sc, mice (ICR) male): 540 mg/kg | LD50 [7]: 5 to 8.1 mg/kg | MLD (dog (mongrel)): > 60 mg/kg

COc1ccc(Cc2nccc3cc(OC)c(OC)cc23)cc1OC [papaverine]
LD50 ([5]; iv, rats (Wister) male): 13.3 mg/kg | LD50 ([6]; iv, mice (ICR) male): 27 mg/kg
